Results reported in patent publication US20210369724A1, “COMBINATION OF ATR KINASE INHIBITORS WITH 2,3-DIHYDROIMIDAZO[1,2-C]QUINAZOLINE COMPOUNDS” (Bayer Aktiengesellschaft, priority 2018, published 2021).
Read-outs that look alike come from different tables or passages of the source. Marks after values point to notes of the source that are not given here. Each block holds one molecule with its values, some of them ahead of it.

Assays:
HCT 116 = experiment: Proliferation assay, mono and fixed-ratio combinations (Cell Titre-Glo, 96 h); type: cell-based, human; conditions: HCT 116, single compound, 96 hour exposure
Procedure: (§3) Tumor cells were propagated in a humidified 37° C. incubator in their respective growth medium supplemented 10% fetal calf serum. […] Cell viability was assessed after 96 hour exposure with the Cell Titre-Glo Luminescent Cell Viability Assay (Promega). […] IC50 isobolograms were plotted with the actual concentrations of the two compounds on the x- and y-axis, and the combination index (CI) was calculated according to the median-effect model of Chou-Talalay [Chou T. C.

MDA-MB-468 = experiment: as above; type: cell-based, human; conditions: MDA-MB-468, single compound, 96 hour exposure
Procedure: (§4) Tumor cells were propagated in a humidified 37° C. incubator in their respective growth medium supplemented 10% fetal calf serum. […] Cell viability was assessed after 96 hour exposure with the Cell Titre-Glo Luminescent Cell Viability Assay (Promega).

LNCaP = experiment: Proliferation assay of prostate cancer cell lines with R1881 (Cell Titre-Glo, 144 h); type: cell-based, human; conditions: 0.3 nM R1881, 144 hour exposure, single compound
Procedure: (§5) Tumor cells were propagated in a humidified 37° C. incubator in their respective growth medium supplemented with 10% fetal calf serum. […] Cell viability was assessed after 144 hour exposure, except for PC-3 cells where measurement took place after 96 hour exposure, with the Cell Titre-Glo Luminescent Cell Viability Assay (Promega).

A2780 = experiment: 72-hour growth assay of ovary cancer cell lines (Cell Titre-Glo); type: cell-based, human; conditions: A2780, single compound, 72 hour exposure
Procedure: (§6) The effects of combinations of the present invention were evaluated using combination index isobologram analysis for in vitro assessment. The efficacy parameters were the effects in a 72-hour growth assay. Tumor cells were propagated in a humidified 37° C. incubator in their respective growth medium (RPMI) supplemented with 10% fetal calf serum. […] Cell viability was assessed after 72 hour exposure with the Cell Titre-Glo Luminescent Cell Viability Assay (Promega). […] IC50 isobolograms were plotted with the actual concentrations of the two compounds on the x- and y-axis, and the combination index (CI) was calculated according to the median-effect model of Chou-Talalay [Chou T. C.

Huh-7 = experiment: Proliferation assay, mono and fixed-ratio combinations (Cell Titre-Glo, 96 h); type: cell-based, human; conditions: Huh-7, single compound, 96 hour exposure
Procedure: as §3

[1] = test system: SUM-149 breast cancer xenograft; experiment: Human SUM-149 breast cancer xenograft model; type: in vivo, female NMRI nude mice
Procedure: (§7) The oral application volume was 10 ml/kg and the intravenous application volume 5 ml/kg. The time interval between two applications per day was 6-7 h. […] The tumor size and the body weight were determined three times weekly. Changes in the body weight compared to the initial body weight at the start of treatment were a measure of treatment-related toxicity (>10%=critical, stoppage in treatment until recovery, >20%=toxic, termination). The tumor area was detected by means of an electronic caliper gauge [length (mm)×width (mm)]. In vivo anti-tumor efficacy is presented as T/C ratio (Treatment/Control) calculated with tumor areas at day of termination of control group by the formula [(tumor area of treatment group at day x)−(tumor area of treatment group at day before first treatment)]/[(tumor area control group at day x)−(tumor area of control group at day before first treatment)]. […] A one-way analysis of variance was performed and differences to the control were compared by a pair-wise comparison procedure (Dunn's method).

IGR-OV1 = experiment: Proliferation assay, mono and fixed-ratio combinations (Cell Titre-Glo, 96 h); type: cell-based, human; conditions: IGR-OV1, single compound, 96 hour exposure
Procedure: as §3

SUM-149 = experiment: as above; type: cell-based, human; conditions: SUM-149, single compound, 96 hour exposure
Procedure: as §4

OVCAR-3 = experiment: 72-hour growth assay of ovary cancer cell lines (Cell Titre-Glo); type: cell-based, human; conditions: OVCAR-3, single compound, 72 hour exposure
Procedure: as §6

C4-2B = experiment: Proliferation assay of prostate cancer cell lines with R1881 (Cell Titre-Glo, 144 h); type: cell-based, human; conditions: 0.3 nM R1881, 144 hour exposure, single compound
Procedure: as §5

22Rv1 = experiment: as above; type: cell-based, human; conditions: 22Rv1, 0.1 nM R1881, 144 hour exposure, single compound
Procedure: as §5

[2] = test system: Ri-1 B cell lymphoma xenograft; experiment: Human Ri-1 B cell lymphoma xenograft model; type: in vivo, female NOD/SCID mice
Procedure: as §7

SK-OV-3 = experiment: Proliferation assay, mono and fixed-ratio combinations (Cell Titre-Glo, 96 h); type: cell-based, human; conditions: SK-OV-3, single compound, 96 hour exposure
Procedure: as §3

PC-3 = experiment: Proliferation assay of prostate cancer cell lines with R1881 (Cell Titre-Glo, 96 h); type: cell-based, human; conditions: PC-3, 0.1 nM R1881, 96 hour exposure, single compound
Procedure: as §5

[3] = test system: pancreatic cancer cell line Capan-1; experiment: Full matrix combination, 72-hour proliferation assay (CellTiter-Glo); type: cell-based; conditions: Capan-1, single agent
Procedure: (§1) Percentage of control (DMSO) in tumor cell growth assay in vitro is used for the assessment of combination effects.
(§2) The efficacy parameters were the effects in a 72-hour assay. Tumor cells were cultured in 37° C. incubator in their respective growth medium and serum according to the protocol from providers. […] Cell viability was assessed after 72 hour exposure with the Cell Titre-Glo Luminescent Cell Viability Assay (Promega).

[4] = test system: ovarian cancer cell lines SK-OV-3; experiment: as above; type: cell-based; conditions: SK-OV-3, single agent Compound A
Procedure: as §1, §2

[5] = test system: small cell lung cancer cell line NCI-H1048; experiment: as above; type: cell-based
Procedure: as §1, §2

[6] = test system: 22Rv1 prostate cancer xenograft; experiment: Human 22Rv1 prostate cancer xenograft model; type: in vivo, male Fox Chase SCID mice
Procedure: as §7

[7] = test system: IGR-OV1 endometrial cancer xenograft; experiment: Human IGR-OV1 endometrial cancer xenograft model; type: in vivo, female NMRI nude mice; conditions: IGR-OV1; 10 mg/kg, i.v., once daily, 2 days on/5 days off, days 1, 2 each week
Procedure: as §7

IGR-OV1 cancer xenograft = experiment: Human IGR-OV1 endometrial cancer xenograft model; type: in vivo, female NMRI nude mice; conditions: IGR-OV1, day 55 after tumor inoculation
Procedure: as §7

PLC/PRF/5 = experiment: Proliferation assay, mono and fixed-ratio combinations (Cell Titre-Glo, 96 h); type: cell-based, human; conditions: PLC/PRF/5, single compound, 96 hour exposure
Procedure: as §4

SNU-449 = experiment: as above; type: cell-based, human; conditions: SNU-449, single compound, 96 hour exposure
Procedure: as §4

VCaP = experiment: Proliferation assay of prostate cancer cell lines with R1881 (Cell Titre-Glo, 144 h); type: cell-based, human; conditions: 0.1 nM R1881, 144 hour exposure, single compound
Procedure: as §5

NCI-H460 = experiment: Proliferation assay of cell lines treated with Compound A, Compound B and fixed-ratio combinations (Cell Titre-Glo, 96 h); type: cell-based, human; conditions: NCI-H460, single compound, 96 hour exposure
Procedure: as §3

[8] = SUM-149, 10 mg/kg, i.v., once daily, 2 days on/5 days off, days 1, 2 each week
[9] = Ri-1, 10 mg/kg, i.v., once daily, 2 days on/5 days off, days 1, 2 each week

- IC50 (HCT 116): 95 nM
- IC50 (MDA-MB-468): 280 nM
- IC50 (LNCaP): 8 nM
- IC50 (A2780): 37.4 nM
- IC50 (Huh-7): 21 nM
- Max. weight loss (%) [1, 8]: −10%
- IC50 (OVCAR-3): 120 nM
- IC50 (C4-2B): 92 nM
- IC50 (22Rv1): 50 nM
- Max. weight loss (%) [2, 9]: −11%
- IC50 (SK-OV-3): 82 nM
- IC50 (PC-3): 100 nM
- Max. weight loss (%) ([6]; 22Rv1, 14 mg/kg, i.v., once daily, 2 days on/5 days off, days 1, 2 each week): −8%
- Max. weight loss (%) [7]: −6%
- IC50 (SNU-449): 100 nM
- IC50 (VCaP): 13 nM
- IC50 (NCI-H460): 63 nM
SMILES: COc1c(OCCCN2CCOCC2)ccc2c1N=C(NC(=O)c1cnc(N)nc1)N1CCN=C21.Cl.Cl [Compound A, 2-amino-N-[7-methoxy-8-(3-morpholin-4-ylpropoxy)-2,3-dihydroimid-azo[1,2-c]quinazolin-5-yl]pyrimidine-5-carboxamide dihydrochloride]
- Anti-tumor efficacy of monotherapy compared to control ([1]; SUM-149, day 49 after tumor inoculation): weak to moderate and statistically significant improved anti-tumor efficacy
- T/C [1, 8]: 0.58*
- IC50 (IGR-OV1): 19 nM
- IC50 (SUM-149): 10 nM
- Anti-tumor efficacy of monotherapy compared to control ([2]; Ri-1, day 38 after tumor inoculation): good and statistically significant improved anti-tumor efficacy
- T/C [2, 9]: 0.09*
- Concentration at which single agent led to moderate anti-proliferation effects [3]: 0.025 µM
- Concentration at which single agent showed anti-proliferative effects [4]: 0.025 µM
- Concentration at which treatment led to tumor killing ([5]; NCI-H1048, single agent Compound A, 72-hour proliferation assay): 0.025 µM
- Anti-tumor efficacy of monotherapy compared to control ([6]; 22Rv1, at the day of control group termination): weak to moderate and statistically significant improved anti-tumor efficacy
- T/C ([6]; 22Rv1, 14 mg/kg, i.v., once daily, 2 days on/5 days off, days 1, 2 each week, tumor area at termination of control group): 0.51*
- T/C [7]: 0.32*
- Anti-tumor efficacy of monotherapy compared to control (IGR-OV1 cancer xenograft): good to moderate and statistically significant improved anti-tumor efficacy
- IC50 (PLC/PRF/5): 180 nM

SMILES: C[C@@H]1COCCN1c1cc(-c2ccnn2C)c2ccnc(-c3ccn[nH]3)c2n1 [Compound B, 2-[(3R)-3-methylmorpholin-4-yl]-4-(1-methyl-1H-pyrazol-5-yl)-8-(1H-pyrazol-5-yl)-1,7-naphthyridine]
- Concentration at which treatment led to tumor killing [5]: 0.253 µM
